Experimental data published in ChEMBL document CHEMBL1148463, “Gamma-amino-substituted analogues of 1-[(S)-2,4-diaminobutanoyl]piperidine as highly potent and selective dipeptidyl peptidase II inhibitors” (J Med Chem, 2004).

Legend:
Dipeptidyl peptidase 4 = Dipeptidyl peptidase 4 (Homo sapiens, UniProt P27487); experiment: Inhibition of human Dipeptidylpeptidase IV (DPP IV)
[1] = target: Dipeptidyl peptidase II and dipeptidyl peptidase IV (DPP2 and DPP4) (Homo sapiens) (UniProt P27487+Q9UHL4); experiment: Ratio of IC50 for DPP IV to that of IC50 for DPP II; format: protein assay
Dipeptidyl peptidase 2 = Dipeptidyl peptidase 2 (Homo sapiens, UniProt Q9UHL4); experiment: Inhibition of human Dipeptidylpeptidase II (DPP II)
[2] = Inhibition of human Dipeptidylpeptidase II (DPP II)

Sequence of Dipeptidyl peptidase 4 (P27487 whole entry): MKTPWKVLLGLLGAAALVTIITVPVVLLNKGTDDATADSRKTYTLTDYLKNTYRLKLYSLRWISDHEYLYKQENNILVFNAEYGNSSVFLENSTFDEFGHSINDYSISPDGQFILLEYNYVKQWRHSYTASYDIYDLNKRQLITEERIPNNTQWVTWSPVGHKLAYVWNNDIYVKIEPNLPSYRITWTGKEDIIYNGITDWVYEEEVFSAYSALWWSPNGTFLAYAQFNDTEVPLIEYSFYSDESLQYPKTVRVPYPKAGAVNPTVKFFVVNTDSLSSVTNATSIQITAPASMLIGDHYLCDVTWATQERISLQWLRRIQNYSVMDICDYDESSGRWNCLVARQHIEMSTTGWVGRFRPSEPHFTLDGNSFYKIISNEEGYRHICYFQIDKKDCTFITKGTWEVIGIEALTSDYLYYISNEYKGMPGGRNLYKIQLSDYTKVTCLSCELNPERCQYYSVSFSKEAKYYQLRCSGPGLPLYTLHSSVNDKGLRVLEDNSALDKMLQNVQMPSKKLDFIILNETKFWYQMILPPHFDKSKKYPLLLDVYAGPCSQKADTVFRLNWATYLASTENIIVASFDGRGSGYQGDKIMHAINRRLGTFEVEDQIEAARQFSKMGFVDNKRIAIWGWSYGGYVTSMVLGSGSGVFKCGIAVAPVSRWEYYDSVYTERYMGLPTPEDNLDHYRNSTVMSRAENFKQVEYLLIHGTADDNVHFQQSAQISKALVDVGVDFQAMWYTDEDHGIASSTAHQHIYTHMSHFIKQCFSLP

| SMILES | IC50 (Dipeptidyl peptidase 4) | SI [1] | IC50 (Dipeptidyl peptidase 2) | IC50 [2] |
| --- | --- | --- | --- | --- |
| NCC[C@H](NCc1ccccc1)C(=O)N1CCCCC1 | > 1000 µM | > 80 | 0.0125 µM | – |
| CN(CC[C@H](N)C(=O)N1CCCCC1)Cc1ccc(Cl)cc1 | 196 µM | 890000 | 0.00022 µM | – |
| N[C@@H](CCNCc1cccc(Cl)c1)C(=O)N1CCCCC1 | 186 µM | 140000 | 0.00134 µM | – |
| N#C[C@@H]1CCCCN1C(=O)[C@@H](N)CCN | 151 µM | 4000 | 0.038 µM | – |
| N[C@@H](CCNCc1ccc(Cl)cc1)C(=O)N1CCC(F)CC1 | 70 µM | 180000 | 0.00039 µM | – |
| N[C@@H](CCNC1CCNCC1)C(=O)N1CCCCC1 | 64 µM | 750 | 0.085 µM | – |
| N[C@@H](CCNCc1ccccc1)C(=O)N1CCCCC1 | 247 µM | 120000 | 0.00203 µM | – |
| CC1CCCCN1C(=O)[C@@H](N)CCNCc1ccc(Cl)cc1 (stereo partly drawn) | > 500 µM | > 220000 | 0.0023 µM | – |
| N#CC1CCCCN1C(=O)[C@@H](N)CCNCc1ccc(Cl)cc1 (stereo partly drawn) | 13 µM | 2000 | 0.0065 µM | – |
| N=C(N)NCC[C@H](N)C(=O)N1CCCCC1 | 545 µM | – | 0.0018 µM | – |
| N[C@@H](CCNC1CCCCC1)C(=O)N1CCCCC1 | > 1000 µM | > 50000 | 0.0186 µM | – |
| COc1cccc(CNCC[C@H](N)C(=O)N2CCCCC2)c1 | 250 µM | 140000 | 0.00177 µM | – |
| N[C@@H](CCNCCc1ccccc1)C(=O)N1CCCCC1 | 188 µM | 210000 | 0.0009 µM | – |
| N[C@@H](CCNc1ccccc1)C(=O)N1CCCCC1 | 250 µM | – | 0.0015 µM | – |
| N[C@@H](CCN(Cc1ccc(Cl)cc1)Cc1ccc(Cl)cc1)C(=O)N1CCCCC1 | > 125 µM | > 30000 | 0.0042 µM | – |
| N#Cc1ccc(NCC[C@H](N)C(=O)N2CCCCC2)nc1 | 205 µM | – | 0.0046 µM | – |
| CC1CCCN(C(=O)[C@@H](N)CCNCc2ccc(Cl)cc2)C1 (stereo partly drawn) | > 500 µM | > 440000 | 0.00113 µM | – |
| N#Cc1cccc(CNCC[C@H](N)C(=O)N2CCCCC2)c1 | 132 µM | 50000 | 0.0027 µM | – |
| NCC[C@H](NC1CCNCC1)C(=O)N1CCCCC1 | > 1000 µM | > 59 | 0.017 µM | – |
| N[C@@H](CCNCc1ccccc1OCc1ccccc1)C(=O)N1CCCCC1 | > 500 µM | > 1.3e+06 | 0.00039 µM | – |
| COc1ccccc1CNCC[C@H](N)C(=O)N1CCCCC1 | > 500 µM | > 270000 | 0.185 µM | – |
| N[C@@H](CCNCCCc1ccccc1)C(=O)N1CCCCC1 | > 500 µM | > 260000 | 0.00191 µM | – |
| N[C@@H](CCNCc1ccncc1)C(=O)N1CCCCC1 | 125 µM | 170000 | 0.00075 µM | – |

| SMILES | IC50 (Dipeptidyl peptidase 4) | SI [1] | IC50 (Dipeptidyl peptidase 2) | IC50 [2] |
| --- | --- | --- | --- | --- |
| N[C@@H](CCNCc1ccc(Cl)cc1)C(=O)N1CCC(O)CC1 | > 1000 µM | > 9000 | 0.113 µM | – |
| N[C@@H](CCNCc1ccc(Cl)cc1)C(=O)N1CCCCC1 | 165 µM | 340000 | 0.00048 µM | – |
| N[C@@H](CCNCc1cccc2ccccc12)C(=O)N1CCCCC1 | 301 µM | 230000 | 0.00131 µM | – |
| COc1ccc(CNCC[C@H](N)C(=O)N2CCCCC2)c(OC)c1 | > 500 µM | > 180000 | 0.0027 µM | – |
| N[C@@H](CCNc1ncccc1[N+](=O)[O-])C(=O)N1CCCCC1 | 56 µM | – | 0.0235 µM | – |
| CC1CCN(C(=O)[C@@H](N)CCNCc2ccc(Cl)cc2)CC1 | > 500 µM | > 910000 | 0.00055 µM | – |
| N[C@@H](CCNCc1ccc(OCc2ccccc2)cc1)C(=O)N1CCCCC1 | 192 µM | 470000 | 0.00041 µM | – |
| N[C@@H](CCNCc1ccc(Cl)cc1)C(=O)N1CCCC(O)C1 (stereo partly drawn) | > 1000 µM | > 20000 | 0.0547 µM | – |
| NCC[C@H](N)C(=O)N1CCCCC1 | > 1000 µM | > 7600 | – | 0.13 µM |
| N[C@@H](CCNCc1ccccc1Cl)C(=O)N1CCCCC1 | 345 µM | 1.5e+06 | 0.00023 µM | – |
| N[C@@H](CCNCc1ccc(Cl)cc1)C(=O)N1CC=CCC1 | 148 µM | 130000 | 0.0011 µM | – |
| N[C@@H](CCNCC1CCCCC1)C(=O)N1CCCCC1 | 496 µM | 450000 | 0.0011 µM | – |
| CN[C@@H](CCNCc1ccc(Cl)cc1)C(=O)N1CCCCC1 | > 500 µM | > 2700 | 0.187 µM | – |
| NCC[C@H](N=C(N)N)C(=O)N1CCCCC1 | > 1000 µM | > 140 | 0.0074 µM | – |
| N#CC1CCCCN1C(=O)[C@@H](N)CCNCc1ccccc1 (stereo partly drawn) | 68 µM | 17000 | 0.004 µM | – |
| N[C@@H](CCNCc1cccs1)C(=O)N1CCCCC1 | 278 µM | 350000 | 0.0008 µM | – |
| N[C@@H](CCNCc1ccc2ccccc2c1)C(=O)N1CCCCC1 | 179 µM | 160000 | 0.0011 µM | – |
| CC(=O)NCC[C@H](N)C(=O)N1CCCCC1 | 518 µM | – | 0.0015 µM | – |
| N[C@@H](CCN(Cc1ccccc1)Cc1ccccc1)C(=O)N1CCCCC1 | 266 µM | 440000 | 0.0006 µM | – |
| N[C@@H](CCNCc1ccc(Cl)cc1)C(=O)N1CCCC(F)C1 (stereo partly drawn) | 500 µM | – | 0.00062 µM | – |
| N[C@@H](CCNC(=O)c1ccccc1)C(=O)N1CCCCC1 | 418 µM | – | 0.0074 µM | – |
| COc1ccc(CNCC[C@H](N)C(=O)N2CCCCC2)cc1 | 417 µM | 630000 | 0.00066 µM | – |
